EC50 data for 5 compounds are collected here from patent publication EP4806910A1, “TRI-AGONIST COMPOUND” (priority 2023, dated 2025).

Holding throughout (assay type): cell-based
One assay deals with T1, GLP-1R (Homo sapiens, UniProt P43220).
T1 construct: expressed in transfected cells; host or cells: CHO-K1
Put plainly: GLP-1 activity test (cAMP, chemiluminescence). The procedure:
(§1) Upon stimulation by a specific agonist, GLP-1R activates the intracellular adenylate cyclase signaling pathway, resulting in an increase in cAMP levels and ultimately leading to insulin production and secretion. A cell line stably transfected with GLP-1R was stimulated with test compounds, thereby rapidly increasing intracellular cAMP levels. The relative luminescence units (RLU) of cells stimulated at various concentrations were measured by a chemiluminescence method, and the EC50 value of the agonist was calculated accordingly. This activity test method is currently a commonly used method for evaluating GLP-1 receptor agonist activity both domestically and internationally. A CHO-K1 cell line stably expressing GLP-1R was used. The stable cells were stimulated with agonists at different concentrations, and the relative luminescence units after stimulation at each concentration were measured to calculate the EC50 value of the agonist.

The target of a further assay is T2, GIPR (Homo sapiens, UniProt P48546).
T2 construct: expressed in transfected cells; host or cells: CHO-K1
T2 sequence (P48546 22-466): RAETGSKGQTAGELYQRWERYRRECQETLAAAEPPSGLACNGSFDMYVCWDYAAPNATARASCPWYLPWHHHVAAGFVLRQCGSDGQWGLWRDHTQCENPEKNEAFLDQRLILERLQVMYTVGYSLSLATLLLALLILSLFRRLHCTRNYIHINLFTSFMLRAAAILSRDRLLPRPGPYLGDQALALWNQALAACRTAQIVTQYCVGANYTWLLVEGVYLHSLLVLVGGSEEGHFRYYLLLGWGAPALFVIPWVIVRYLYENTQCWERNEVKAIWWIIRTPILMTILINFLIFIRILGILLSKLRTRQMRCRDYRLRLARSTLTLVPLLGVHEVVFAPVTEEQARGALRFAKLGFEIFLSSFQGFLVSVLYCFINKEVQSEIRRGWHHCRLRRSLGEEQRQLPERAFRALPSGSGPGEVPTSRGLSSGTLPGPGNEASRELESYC
Put plainly: GIP activity test (cAMP, chemiluminescence). The protocol: as §1, with “agonist, GIPR” for “agonist, GLP-1R”, “with GIPR” for “with GLP-1R”, “activity assay” for “activity test”, “evaluating GIP” for “evaluating GLP-1”, “expressing GIPR” for “expressing GLP-1R”

For another assay, the target named is T3, GCG-R (Homo sapiens, UniProt P47871).
T3 construct: expressed in transfected cells; host or cells: CHO-K1
T3 sequence (P47871 26-477, species assumed): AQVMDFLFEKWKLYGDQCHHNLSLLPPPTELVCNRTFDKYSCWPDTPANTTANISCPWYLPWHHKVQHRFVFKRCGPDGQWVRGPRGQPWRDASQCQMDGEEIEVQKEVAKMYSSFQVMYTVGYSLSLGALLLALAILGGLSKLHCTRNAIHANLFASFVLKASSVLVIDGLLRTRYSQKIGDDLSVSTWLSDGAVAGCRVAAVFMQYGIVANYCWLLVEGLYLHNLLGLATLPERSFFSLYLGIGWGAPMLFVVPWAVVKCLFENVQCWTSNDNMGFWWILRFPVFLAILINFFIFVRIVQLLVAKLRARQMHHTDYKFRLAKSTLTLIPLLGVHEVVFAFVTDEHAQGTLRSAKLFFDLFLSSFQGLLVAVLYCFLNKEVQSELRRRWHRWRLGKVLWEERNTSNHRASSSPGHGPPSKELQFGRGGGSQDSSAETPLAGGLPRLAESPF
Nature of the assay: GCG activity test (cAMP, chemiluminescence). The protocol: Upon stimulation by a specific agonist, GCG-R activates the intracellular adenylate cyclase signaling pathway, resulting in an increase in cAMP levels and ultimately leading to insulin production and secretion. A cell line stably transfected with GCG-R was stimulated with test compounds, thereby rapidly increasing intracellular cAMP levels. The relative luminescence units (RLU) of cells stimulated at various concentrations were measured by a chemiluminescence method, and the EC50 value of the agonist was calculated accordingly. This activity assay method is currently a commonly used method for evaluating GCG receptor agonist activity both domestically and internationally.
A CHO-K1 cell line stably expressing GCG-R was used. The stable cells were stimulated with agonists at different concentrations, and the relative luminescence units after stimulation at each concentration were measured to calculate the EC50 value of the agonist.

What is called EC50 is the concentration giving half of the maximal effect. A high value points to lower potency in that assay.

T1 sequence (P43220 24-463, species assumed): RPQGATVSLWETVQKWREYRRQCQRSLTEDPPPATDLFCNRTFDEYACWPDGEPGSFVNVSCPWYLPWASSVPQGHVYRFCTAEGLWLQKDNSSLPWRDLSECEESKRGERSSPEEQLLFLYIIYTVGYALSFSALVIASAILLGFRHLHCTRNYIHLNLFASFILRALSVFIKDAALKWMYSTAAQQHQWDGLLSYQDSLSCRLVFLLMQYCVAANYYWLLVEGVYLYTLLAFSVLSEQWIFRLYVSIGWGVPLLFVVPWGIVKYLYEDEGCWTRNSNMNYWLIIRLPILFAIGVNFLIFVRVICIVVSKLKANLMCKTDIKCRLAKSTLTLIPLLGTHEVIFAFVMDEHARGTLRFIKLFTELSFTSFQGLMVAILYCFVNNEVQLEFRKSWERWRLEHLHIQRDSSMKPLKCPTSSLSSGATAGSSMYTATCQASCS

For the compound `CC[C@H](C)[C@H](NC(=O)[C@H](Cc1ccccc1)NC(=O)[C@H](C)NC(=O)C(C)(C)NC(=O)[C@H](CCC(N)=O)NC(=O)[C@H](C)NC(=O)[C@H](CCCCNC(=O)COCCOCCNC(=O)CC[C@H](NC(=O)CCCCCCCCCCCCCCCCCCC(=O)O)C(=O)O)NC(=O)[C@H](CCCCN)NC(=O)[C@H](CC(=O)O)NC(=O)[C@H](CC(C)C)NC(=O)C(C)(CC(C)C)NC(=O)[C@@H](NC(=O)[C@H](CO)NC(=O)[C@H](Cc1ccc(O)cc1)NC(=O)[C@H](CC(=O)O)NC(=O)[C@H](CO)NC(=O)[C@@H](NC(=O)C(C)(Cc1ccccc1)NC(=O)[C@@H](NC(=O)CNC(=O)[C@H](CCC(N)=O)NC(=O)C(C)(C)NC(=O)[C@@H](N)Cc1ccc(O)cc1)[C@@H](C)O)[C@@H](C)O)[C@@H](C)CC)C(=O)N[C@@H](CCC(=O)O)C(=O)N[C@@H](Cc1ccc(O)cc1)C(=O)N[C@@H](CC(C)C)C(=O)N[C@@H](CC(C)C)C(=O)N[C@@H](CCC(=O)O)C(=O)NCCCCC(=O)N1CCC[C@H]1C(=O)N[C@@H](CO)C(=O)N[C@@H](CO)C(=O)NCC(=O)N[C@@H](C)C(=O)N1CCC[C@H]1C(=O)N1CCC[C@H]1C(=O)N1CCC[C@H]1C(=O)N[C@@H](CO)C(N)=O` (stereo partly drawn) [Compound 1], the EC50 at GLP-1R is 0.045 nM; at GIPR it was 0.0244 nM; at GCG-R it was 0.271 nM.
For `CC[C@H](C)[C@H](NC(=O)[C@H](Cc1ccccc1)NC(=O)[C@H](C)NC(=O)C(C)(C)NC(=O)[C@H](CCC(N)=O)NC(=O)[C@H](C)NC(=O)[C@H](CCCCNC(=O)COCCOCCNC(=O)CCCC[C@H](NC(=O)CCCCCCCCCCCCCCCCCCC(=O)O)C(=O)O)NC(=O)[C@H](CCCCN)NC(=O)[C@H](CC(=O)O)NC(=O)[C@H](CC(C)C)NC(=O)C(C)(CC(C)C)NC(=O)[C@@H](NC(=O)[C@H](CO)NC(=O)[C@H](Cc1ccc(O)cc1)NC(=O)[C@H](CC(=O)O)NC(=O)[C@H](CO)NC(=O)[C@@H](NC(=O)C(C)(Cc1ccccc1)NC(=O)[C@@H](NC(=O)CNC(=O)[C@H](CCC(N)=O)NC(=O)C(C)(C)NC(=O)[C@@H](N)Cc1ccc(O)cc1)[C@@H](C)O)[C@@H](C)O)[C@@H](C)CC)C(=O)N[C@@H](CCC(=O)O)C(=O)N[C@@H](Cc1ccc(O)cc1)C(=O)N[C@@H](CC(C)C)C(=O)N[C@@H](CC(C)C)C(=O)N[C@@H](CCC(=O)O)C(=O)NCCCCC(=O)N1CCC[C@H]1C(=O)N[C@@H](CO)C(=O)N[C@@H](CO)C(=O)NCC(=O)N[C@@H](C)C(=O)N1CCC[C@H]1C(=O)N1CCC[C@H]1C(=O)N1CCC[C@H]1C(=O)N[C@@H](CO)C(N)=O` (stereo partly drawn) [Compound 3], in that order: 0.0452 nM, 0.0267 nM and 0.283 nM.
For `CC[C@H](C)[C@H](NC(=O)[C@H](Cc1ccccc1)NC(=O)[C@H](C)NC(=O)C(C)(C)NC(=O)[C@H](CCC(N)=O)NC(=O)[C@H](C)NC(=O)[C@H](CCCCNC(=O)COCCOCCNC(=O)CCCCC[C@H](NC(=O)CCCCCCCCCCCCCCCCCCC(=O)O)C(=O)O)NC(=O)[C@H](CCCCN)NC(=O)[C@H](CC(=O)O)NC(=O)[C@H](CC(C)C)NC(=O)C(C)(CC(C)C)NC(=O)[C@@H](NC(=O)[C@H](CO)NC(=O)[C@H](Cc1ccc(O)cc1)NC(=O)[C@H](CC(=O)O)NC(=O)[C@H](CO)NC(=O)[C@@H](NC(=O)C(C)(Cc1ccccc1)NC(=O)[C@@H](NC(=O)CNC(=O)[C@H](CCC(N)=O)NC(=O)C(C)(C)NC(=O)[C@@H](N)Cc1ccc(O)cc1)[C@@H](C)O)[C@@H](C)O)[C@@H](C)CC)C(=O)N[C@@H](CCC(=O)O)C(=O)N[C@@H](Cc1ccc(O)cc1)C(=O)N[C@@H](CC(C)C)C(=O)N[C@@H](CC(C)C)C(=O)N[C@@H](CCC(=O)O)C(=O)NCCCCC(=O)N1CCC[C@H]1C(=O)N[C@@H](CO)C(=O)N[C@@H](CO)C(=O)NCC(=O)N[C@@H](C)C(=O)N1CCC[C@H]1C(=O)N1CCC[C@H]1C(=O)N1CCC[C@H]1C(=O)N[C@@H](CO)C(N)=O` (stereo partly drawn) [Compound 4], in that order: 0.0554 nM, 0.031 nM and 0.286 nM.
For `CC[C@H](C)[C@H](NC(=O)[C@H](Cc1ccccc1)NC(=O)[C@H](C)NC(=O)C(C)(C)NC(=O)[C@H](CCC(N)=O)NC(=O)[C@H](C)NC(=O)[C@H](CCCCNC(=O)COCCOCCNC(=O)CC[C@H](NC(=O)CCCCCCCCCCCCCCCCCCC(=O)O)C(=O)O)NC(=O)[C@H](CCCCN)NC(=O)[C@H](CC(=O)O)NC(=O)[C@H](CC(C)C)NC(=O)C(C)(CC(C)C)NC(=O)[C@@H](NC(=O)[C@H](CO)NC(=O)[C@H](Cc1ccc(O)cc1)NC(=O)[C@H](CC(=O)O)NC(=O)[C@H](CO)NC(=O)[C@@H](NC(=O)C(C)(Cc1ccccc1F)NC(=O)[C@@H](NC(=O)CNC(=O)[C@H](CCC(N)=O)NC(=O)C(C)(C)NC(=O)[C@@H](N)Cc1ccc(O)cc1)[C@@H](C)O)[C@@H](C)O)[C@@H](C)CC)C(=O)N[C@@H](CCC(=O)O)C(=O)N[C@@H](Cc1ccc(O)cc1)C(=O)N[C@@H](CC(C)C)C(=O)N[C@@H](CC(C)C)C(=O)N[C@@H](CCC(=O)O)C(=O)NCCCCC(=O)N1CCC[C@H]1C(=O)N[C@@H](CO)C(=O)N[C@@H](CO)C(=O)NCC(=O)N[C@@H](C)C(=O)N1CCC[C@H]1C(=O)N1CCC[C@H]1C(=O)N1CCC[C@H]1C(=O)N[C@@H](CO)C(N)=O` (stereo partly drawn) [Compound 5], in that order: 0.0434 nM, 0.0236 nM and 0.159 nM.
In the case of `CC[C@H](C)[C@H](NC(=O)[C@H](Cc1ccccc1)NC(=O)[C@H](C)NC(=O)C(C)(C)NC(=O)[C@H](CCC(N)=O)NC(=O)[C@H](C)NC(=O)[C@H](CCCCNC(=O)COCCOCCNC(=O)CCCC[C@H](NC(=O)CCCCCCCCCCCCCCCCCCC(=O)O)C(=O)O)NC(=O)[C@H](CCCCN)NC(=O)[C@H](CC(=O)O)NC(=O)[C@H](CC(C)C)NC(=O)C(C)(CC(C)C)NC(=O)[C@@H](NC(=O)[C@H](CO)NC(=O)[C@H](Cc1ccc(O)cc1)NC(=O)[C@H](CC(=O)O)NC(=O)[C@H](CO)NC(=O)[C@@H](NC(=O)C(C)(Cc1ccccc1F)NC(=O)[C@@H](NC(=O)CNC(=O)[C@H](CCC(N)=O)NC(=O)C(C)(C)NC(=O)[C@@H](N)Cc1ccc(O)cc1)[C@@H](C)O)[C@@H](C)O)[C@@H](C)CC)C(=O)N[C@@H](CCC(=O)O)C(=O)N[C@@H](Cc1ccc(O)cc1)C(=O)N[C@@H](CC(C)C)C(=O)N[C@@H](CC(C)C)C(=O)N[C@@H](CCC(=O)O)C(=O)NCCCCC(=O)N1CCC[C@H]1C(=O)N[C@@H](CO)C(=O)N[C@@H](CO)C(=O)NCC(=O)N[C@@H](C)C(=O)N1CCC[C@H]1C(=O)N1CCC[C@H]1C(=O)N1CCC[C@H]1C(=O)N[C@@H](CO)C(N)=O` (stereo partly drawn) [Compound 7], the EC50 on GLP-1R is 0.0455 nM; on GIPR, 0.0246 nM; at GCG-R it was 0.163 nM.
